pEC50, pIC50: −log10 of the molar value.
Assays:
A-431 = assay: Antiproliferative activity against human A431 cells after 48 hrs by sulforhodamine B assay; format: functional, cell-based; settings: A-431, 48 h
[1] = Induction of microtubule depolymerization in rat A10 cells after 18 hrs by indirect immunofluorescence assay; format: cell-based
[2] = Antiangiogenic activity in VEGF-165 and bFGF-stimulated chicken embryo chorioallantoic membrane assessed as inhibition of blood vessel formation after 40 hrs by microscopy; format: functional, tissue-based, Gallus gallus
HeLa = assay: Antiproliferative activity against human HeLa cells overexpressing wild type beta3 tubulin after 48 hrs by sulforhodamine B assay; format: functional, cell-based
MDA-MB-435 = assay: Antiproliferative activity against human MDA-MB-435 cells after 48 hrs by sulforhodamine B assay; format: functional, cell-based; settings: MDA-MB-435, 48 h
[3] = Antiproliferative activity against human SKOV3 cells overexpressing wild type beta3 tubulin after 48 hrs by sulforhodamine B assay; format: functional, cell-based; settings: SK-OV-3, 48 h

| pIC50 (A-431) | pEC50 [1] | pIC50 (HeLa) | pIC50 (MDA-MB-435) | Compound | pIC50 [2] | pIC50 [3] |
| --- | --- | --- | --- | --- | --- | --- |
| 7.31 | < 5.00 | – | – | Cc1nc(N(C)c2ccc3c(c2)OCO3)c2cc(C)oc2n1 | 4.42 | – |
| 7.37 | < 5.00 | – | – | COc1ccc2c(c1)CCN2c1nc(C)nc2oc(C)cc12 | – | – |
| – | – | 7.48 | 8.48 | CC(=O)O[C@H]1C(=O)[C@@]2(C)[C@H]([C@H](OC(=O)c3ccccc3)[C@]3(O)C[C@H](OC(=O)[C@H](O)[C@@H](NC(=O)c4ccccc4)c4ccccc4)C(C)=C1C3(C)C)[C@]1(OC(C)=O)CO[C@@H]1C[C@@H]2O [PACLITAXEL] | – | 8.20 |

Reference: ChEMBL document CHEMBL3400114, “The design, synthesis and biological evaluation of conformationally restricted 4-substituted-2,6-dimethylfuro[2,3-d]pyrimidines as multi-targeted receptor tyrosine kinase and microtubule inhibitors as potential antitumor agents” (Bioorg Med Chem, 2015)
